Numbers after ± are expanded uncertainties.
Conditions: Liquid, Ebulliometric method (Recirculating still)

SMILES	vapor or sublimation pressure (363.25 K) [kPa]	vapor or sublimation pressure (337.85 K) [kPa]
COC(=O)OC [dimethyl carbonate]	101.32 ± 1.1	
CO [methanol]		101.32 ± 1.1

From the NIST ThermoML archive (doi:10.1021/je2005402)
